Columns and labels:
Assay in all cases: relative viability (nuclei count vs DMSO), 5 days (fraction); higher = more cells survive
Afatinib + Luminespib = compound: CN(C)C/C=C/C(=O)Nc1cc2c(Nc3ccc(F)c(Cl)c3)ncnc2cc1O[C@H]1CCOC1 [Afatinib] + CCNC(=O)c1noc(-c2cc(C(C)C)c(O)cc2O)c1-c1ccc(CN2CCOCC2)cc1 [Luminespib] (partner 0.01 µM)
Method in brief: (§1)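 For relative viability, nuclei counts in treated wells were divided by those in vehicle wells. Lung cancer cell lines had been pin-tool dosed in 1536-well plates the day after seeding and cultured for 5 days, then fixed and stained in one step (final 0.05% Triton X-100, 1% formaldehyde, 1 ug/ml Hoechst) and imaged at 4×. Doses were one drug alone or a fixed anchor-drug dose plus five library-drug doses (not always all listed) in √10 steps, and values are duplicate-plate medians.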

Afatinib + OSI-027 = compound: CN(C)C/C=C/C(=O)Nc1cc2c(Nc3ccc(F)c(Cl)c3)ncnc2cc1O[C@H]1CCOC1 [Afatinib] + COc1cccc2cc(-c3nc([C@H]4CC[C@H](C(=O)O)CC4)n4ncnc(N)c34)[nH]c12 [OSI-027] (partner 0.5 µM)
Method in brief: as §1

Afatinib + Pictilisib = compound: CN(C)C/C=C/C(=O)Nc1cc2c(Nc3ccc(F)c(Cl)c3)ncnc2cc1O[C@H]1CCOC1 [Afatinib] + CS(=O)(=O)N1CCN(Cc2cc3nc(-c4cccc5[nH]ncc45)nc(N4CCOCC4)c3s2)CC1 [Pictilisib] (partner 1 µM)
Method in brief: as §1

Afatinib + Palbociclib = compound: CN(C)C/C=C/C(=O)Nc1cc2c(Nc3ccc(F)c(Cl)c3)ncnc2cc1O[C@H]1CCOC1 [Afatinib] + CC(=O)c1c(C)c2cnc(Nc3ccc(N4CCNCC4)cn3)nc2n(C2CCCC2)c1=O [Palbociclib] (partner 0.5 µM)
Method in brief: as §1

| Cell Line | relative viability (Afatinib + Luminespib; first compound 0.005 µM) | relative viability (Afatinib + Luminespib; first compound 0.01581 µM) | relative viability (Afatinib + Luminespib; first compound 0.05 µM) | relative viability (Afatinib + Luminespib; first compound 0.1581 µM) | relative viability (Afatinib + Luminespib; first compound 0.5 µM) | relative viability (Afatinib + OSI-027; first compound 0.005 µM) | relative viability (Afatinib + OSI-027; first compound 0.01581 µM) | relative viability (Afatinib + OSI-027; first compound 0.05 µM) | relative viability (Afatinib + OSI-027; first compound 0.1581 µM) | relative viability (Afatinib + OSI-027; first compound 0.5 µM) | relative viability (Afatinib + Pictilisib; first compound 0.005 µM) | relative viability (Afatinib + Pictilisib; first compound 0.01581 µM) | relative viability (Afatinib + Pictilisib; first compound 0.05 µM) | relative viability (Afatinib + Pictilisib; first compound 0.1581 µM) | relative viability (Afatinib + Pictilisib; first compound 0.5 µM) | relative viability (Afatinib + Palbociclib; first compound 0.005 µM) | relative viability (Afatinib + Palbociclib; first compound 0.01581 µM) | relative viability (Afatinib + Palbociclib; first compound 0.05 µM) | relative viability (Afatinib + Palbociclib; first compound 0.1581 µM) | relative viability (Afatinib + Palbociclib; first compound 0.5 µM) |
| --- | --- | --- | --- | --- | --- | --- | --- | --- | --- | --- | --- | --- | --- | --- | --- | --- | --- | --- | --- | --- |
| LCLC-97TM1 | 0.785 | 0.862 | 0.708 | 0.722 | 0.68 | 0.561 | 0.502 | 0.629 | 0.43 | 0.457 | 0.27 | 0.182 | 0.182 | 0.144 | 0.15 | 0.222 | 0.232 | 0.23 | 0.239 | 0.201 |
| HARA | 0.719 | 0.327 | 0.425 | 0.334 | 0.458 | 0.365 | 0.228 | 0.163 | 0.234 | 0.293 | 0.429 | 0.331 | 0.16 | 0.206 | 0.195 | 0.188 | 0.242 | 0.204 | 0.189 | 0.197 |
| HCC-78 | – | – | – | – | – | 0.443 | 0.326 | 0.331 | 0.317 | 0.283 | 0.207 | 0.189 | 0.19 | 0.218 | 0.173 | 0.46 | 0.41 | 0.452 | 0.594 | 0.461 |
| NCI-H1666 | 0.973 | 0.931 | 0.796 | 0.807 | 0.808 | 0.88 | 0.759 | 0.657 | 0.581 | 0.612 | 0.329 | 0.252 | 0.344 | – | 0.345 | 0.656 | 0.617 | 0.645 | 0.673 | 0.688 |
| NCI-H2347 | 0.295 | 0.352 | 0.555 | 0.404 | 0.316 | 0.403 | 0.46 | 0.393 | 0.364 | 0.373 | 0.737 | 0.665 | 0.672 | 0.596 | 0.841 | 0.415 | 0.446 | 0.445 | 0.418 | 0.432 |
| NCI-H838 | 0.346 | 0.291 | 0.272 | 0.217 | 0.248 | 0.445 | 0.353 | 0.371 | 0.365 | 0.363 | 0.441 | 0.462 | 0.453 | 0.497 | 0.524 | 0.216 | 0.227 | 0.242 | 0.214 | 0.233 |
| NCI-H2023 | 0.85 | 0.711 | 0.756 | 0.594 | 0.71 | 0.38 | 0.354 | 0.394 | 0.351 | 0.279 | 0.248 | 0.233 | 0.261 | 0.216 | 0.239 | 0.382 | 0.333 | 0.284 | 0.265 | 0.275 |
